Assay results taken from PubChem BioAssay AID248 (DTP/NCI, 2004).
Inconclusive results and toxic doses are left out. Cut-off read from the data, not from the text of the source: active = T/C of 150% or more; inactive = T/C below 125%.

Test system: L1210 leukemia ip in BDF1 mice, survival T/C
Assay: NCI In Vivo Anticancer Drug Screen. Data for tumor model L1210 Leukemia (intraperitoneal) in B6D2F1 (BDF1) mice
Details: endpoint: mean survival time, higher = longer survival
Protocol: The antitumor activity of compounds was measured in mice bearing transplantable tumors. Survival or tumor size were measured and the results are expressed as the measurement made in the treated group (T) divided by the measurement made in the vehicle treated control group (C). The tumor model used in this assay is L1210 Leukemia (intraperitoneal) in B6D2F1 (BDF1) mice

[1] = dose: 100.0 mg/kg/injection, schedule: Q04DX003 (ip), vehicle: Klucel (hydroxypropylcellulose) (HPC)
[2] = dose: 200.0 mg/kg/injection, schedule: Q04DX003 (ip), vehicle: Klucel (hydroxypropylcellulose) (HPC)
[3] = dose: 400.0 mg/kg/injection, schedule: Q04DX003 (ip), vehicle: Klucel (hydroxypropylcellulose) (HPC)
[4] = dose: 25.0 mg/kg/injection, schedule: Q01DX009 (ip), vehicle: saline
[5] = dose: 50.0 mg/kg/injection, schedule: Q01DX009 (ip), vehicle: saline
[6] = dose: 50.0 mg/kg/injection, schedule: Q01DX001 (ip), vehicle: saline
[7] = dose: 100.0 mg/kg/injection, schedule: Q01DX009 (ip), vehicle: saline with Tween-80
[8] = dose: 100.0 mg/kg/injection, schedule: Q04DX003 (ip), vehicle: saline with Tween-80
[9] = dose: 200.0 mg/kg/injection, schedule: Q01DX009 (ip), vehicle: saline with Tween-80
[10] = dose: 100.0 mg/kg/injection, schedule: Q01DX009 (ip), vehicle: Klucel (hydroxypropylcellulose) (HPC)
[11] = dose: 200.0 mg/kg/injection, schedule: Q01DX009 (ip), vehicle: Klucel (hydroxypropylcellulose) (HPC)
[12] = dose: 400.0 mg/kg/injection, schedule: Q01DX009 (ip), vehicle: Klucel (hydroxypropylcellulose) (HPC)

Measured: T/C

CC(C)C(=O)NNC(=O)C(C)C
inactive: [1] 100 % of control | [2] 108 % of control | [3] 106 % of control

CCCCN(CCCC)CCNc1ccc(C)c2sc3ccccc3c(=O)c12
inactive: dose: 40.0 mg/kg/injection, schedule: Q01DX Z (ip), vehicle: carboxymethylcellulose (CMC) 104 % of control | dose: 600.0 mg/kg/injection, schedule: Q01DX Z (ip), vehicle: carboxymethylcellulose (CMC) 95 % of control

Nc1nc(N)c(CCCOc2ccccc2)c(N)n1
inactive: dose: 100.0 mg/kg/injection, schedule: Q04DX002 (ip), vehicle: saline 105 % of control | dose: 200.0 mg/kg/injection, schedule: Q04DX002 (ip), vehicle: saline 105 % of control

CC1(C)N=C(N)N=C(N)N1c1cccc(CC(=O)Nc2ccccc2)c1
inactive: dose: 12.5 mg/kg/injection, schedule: Q01DX009 (ip), vehicle: saline 102 % of control | [4] 98 % of control | [5] 102 % of control | dose: 100.0 mg/kg/injection, schedule: Q01DX009 (ip), vehicle: saline 96 % of control | dose: 200.0 mg/kg/injection, schedule: Q01DX009 (ip), vehicle: saline 98 % of control

O=C(O)c1cccc2c1C(=O)c1cc([N+](=O)[O-])ccc1-2
inactive: dose: 75.0 mg/kg/injection, schedule: Q01DX001 (ip), vehicle: carboxymethylcellulose (CMC) 101 % of control | dose: 150.0 mg/kg/injection, schedule: Q01DX001 (ip), vehicle: carboxymethylcellulose (CMC) 105 % of control

COc1ccc(OC)c(NC(=O)Nc2ccc(Nc3ccccc3)cc2)c1
inactive: [2] 93 % of control | [3] 100 % of control

C[N+](C)(C)Cc1cccc([N+](=O)[O-])c1
inactive: dose: 12.0 mg/kg/injection, schedule: Q01DX009 (ip), vehicle: saline 90 % of control | [4] 92 % of control | [6] 98 % of control | [5] 93 % of control

S=c1cc(-c2ccco2)ss1
inactive: [7] 93 % of control | [8] 90 % of control | [9] 91 % of control | dose: 200.0 mg/kg/injection, schedule: Q04DX003 (ip), vehicle: saline with Tween-80 95 % of control | dose: 400.0 mg/kg/injection, schedule: Q01DX009 (ip), vehicle: saline with Tween-80 90 % of control | dose: 400.0 mg/kg/injection, schedule: Q04DX003 (ip), vehicle: saline with Tween-80 96 % of control

COC(=O)c1ccccc1NC(=O)c1cccc(F)c1
inactive: [10] 95 % of control | [11] 105 % of control | [12] 103 % of control

O=S(=O)(OCCCl)c1ccc(Cl)c(S(=O)(=O)OCCCl)c1
inactive: [8] 97 % of control

NC(=O)c1ccc(C(F)(F)F)cc1O
inactive: [10] 95 % of control | [1] 100 % of control | [11] 95 % of control | [2] 97 % of control | [12] 95 % of control | [3] 95 % of control

Oc1ccc(N=Cc2ccccn2)cc1
inactive: dose: 100.0 mg/kg/injection, schedule: Q01DX001 (ip), vehicle: carboxymethylcellulose (CMC) 96 % of control | dose: 200.0 mg/kg/injection, schedule: Q01DX001 (ip), vehicle: carboxymethylcellulose (CMC) 105 % of control | dose: 400.0 mg/kg/injection, schedule: Q01DX001 (ip), vehicle: carboxymethylcellulose (CMC) 98 % of control

O=[N+]([O-])c1ccc(S(=O)(=O)OCc2ccccc2COS(=O)(=O)c2ccc([N+](=O)[O-])cc2)cc1
inactive: dose: 50.0 mg/kg/injection, schedule: Q04DX002 (ip), vehicle: saline with Tween-80 106 % of control | dose: 100.0 mg/kg/injection, schedule: Q04DX002 (ip), vehicle: saline with Tween-80 101 % of control

CN(C)c1nc2c(=O)[nH]cnc2n1C1OC(CO)C(O)C1O (stereo not drawn)
inactive: [6] 95 % of control | dose: 100.0 mg/kg/injection, schedule: Q01DX001 (ip), vehicle: saline 93 % of control | dose: 200.0 mg/kg/injection, schedule: Q01DX001 (ip), vehicle: saline 112 % of control | dose: 400.0 mg/kg/injection, schedule: Q01DX001 (ip), vehicle: saline 95 % of control

CCN(/C=C1/SC(=S)NC1=O)CC
inactive: dose: 50.0 mg/kg/injection, schedule: Q01DX009 (ip), vehicle: saline with Tween-80 109 % of control | [7] 98 % of control | [9] 119 % of control
